Results: US20070004653A1, “Stable lyophilized anthracycline glycosides” (priority 2005, published 2007)

Assay: Stability tests of lyophilized Idarubicin HCl, not stabilized and stabilized: pH, aglycone, bis-anhydro before and after lyophilization
Assay type: physicochemical
Description: Starting product was idarubicin hydrochloride, 1% w/v in water, containing amount of free HCl. No additional chemicals were added. Most of the solution was frozen and lyophilized. […]
To obtain idarubicin hydrochloride containing a trace amount of free HCl, idarubicin HCl was slurried in 20 volumes of a mixture of dichloromethane:methanol (90:10) containing a 1% molar amount of HCl with respect to the molar amount of idarubicin hydrochloride. The slurry was filtered off and washed with the same solvent mixture and then dried under vacuum at room temperature, until constant weight.
Starting product was idarubicin hydrochloride: 1% w/v in water, containing a trace amount of free HCl. 1.5% mol of both NH4OAc and AcOH with respect to idarubicin hydrochloride were added. Most of the solution was frozen and lyophilized. […]
Starting product was idarubicin hydrochloride, 1% w/v in water, containing a trace amount of free HCl. The solution was first decolorized with charcoal and 1.5% mol of both NH4OAc and AcOH with respect to idarubicin hydrochloride were added. Most of the solution was frozen and lyophilized. […]
Starting product was idarubicin hydrochloride, 1% w/v in water, containing a trace amount of free HCl. 0.65% mol of both NH4OAc and AcOH (0.1% and 0.08% w/w, respectively) with respect to idarubicin hydrochloride were added. Most of the solution was frozen and lyophilized. […]
Starting product was idarubicin hydrochloride, 1% w/v in water, containing a trace amount of free HCl. 0.1% w/w of NH4HCO3 and gaseous CO2 were added. Most of the solution was frozen and lyophilized. […]
Starting product was idarubicin hydrochloride, 1% w/v in water, containing a trace amount of free HCl. 0.1% w/w of NaHCO3 and gaseous CO2 were added. Most of the solution was frozen and lyophilized. […]
Starting product was idarubicin hydrochloride, 1% w/v in water, containing a trace amount of free HCl. 1.0% molar amount of AMBERLITE® IRA-67 (1.6 M) acetate and 0.8% molar amount of acetic acid with respect to idarubicin hydrochloride were added. The solution was filtered through a 0.4 micron membrane then it was frozen and lyophilized.

[1] = Example 16: solution to load into lyophilizer, no additional chemicals
[2] = Example 26: solution + 1.5% mol of both NH4OAc/AcOH to load into lyophilizer
[3] = Example 27: solution decolorized with charcoal + 1.5% mol of both NH4OAc/AcOH to load into lyophilizer
[4] = Example 28: solution + 0.65% mol of both NH4OAc/AcOH to load into lyophilizer
[5] = Example 29: lyophilized product obtained (NH4HCO3 + CO2)
[6] = Example 29: solution + 0.1% w/w of NH4HCO3 and gaseous CO2 to saturation, to load into lyophilizer
[7] = Example 30: lyophilized product obtained (NaHCO3 + CO2)
[8] = Example 30: solution + 0.1% w/w of NaHCO3 and gaseous CO2 to saturation, to load into lyophilizer
[9] = Example 31: solution + 1.0% mol of IRA-67 acetate and 0.8% mol of acetic acid, slurried 2 hr, filtered, loaded into lyophilizer

With `CC(=O)[C@]1(O)Cc2c(O)c3c(c(O)c2[C@@H](O[C@H]2C[C@@H](N)[C@H](O)C(C)O2)C1)C(=O)c1ccccc1C3=O.Cl` (some centres unmarked) [Idarubicin HCl, Idarubicin hydrochloride] the “% aglycone” value (Example 16: lyophilized product obtained, not stabilized) was 0.29%, the “% aglycone” value [1] was 0.14% and the “pH of the solution as 1% w/v” value [1] was 5.36. For the same molecule, the “pH of the solution diluted to 0.5% w/v” value [1] was 6.32, the “% aglycone” value (Example 26: lyophilized product obtained (1.5% mol of both NH4OAc/AcOH)) was 0.16% and the “% aglycone” value [2] was 0.14%. For the same molecule, the “pH of the solution as 1% w/v” value [2] was 5.14, the “pH of the solution diluted to 0.5% w/v” value [2] was 5.26 and the “% aglycone” value (Example 27: lyophilized product obtained (charcoal + 1.5% mol of both NH4OAc/AcOH)) was 0.04%. For the same molecule, the “% aglycone” value [3] was 0.03%, the “pH of the solution as 1% w/v” value [3] was 5.85 and the “pH of the solution diluted to 0.5% w/v” value [3] was 6.05. For the same molecule, the “% aglycone” value (Example 28: lyophilized product obtained (0.65% mol of both NH4OAc/AcOH)) was 0.19%, the “% aglycone” value [4] was 0.15% and the “pH of the solution diluted to 0.5% w/v” value [4] was 5.72. The “% aglycone” value [5] was 0.16%, the “% bis-anhydro” value [5] was 0.05% and the “% aglycone” value [6] was 0.15%. The “% bis-anhydro” value [6] was 0.06%, the “pH of the solution diluted to 0.5% w/v” value [6] was 5.73 and the “% aglycone” value [7] was 0.16%. The “% bis-anhydro” value [7] was 0.05%, the “% aglycone” value [8] was 0.15% and the “% bis-anhydro” value [8] was 0.05%. The “pH of the solution diluted to 0.5% w/v” value [8] was 6.14, the “% aglycone” value (Example 31: lyophilized product obtained (IRA-67 acetate + acetic acid)) was 0.18% and the “% aglycone” value [9] was 0.15%. The “pH of the solution after dilution to 0.5% w/v” value [9] was 5.82 and the “% aglycone” value (starting solid idarubicin HCl containing a trace amount of HCl) was 0.14%.
